# Test results from patent US10188629B2, “Prodrug of green tea epigallocatechin-3-gallate (pro-EGCG) for use in the treatment of endometriosis” (The Hong Kong Polytechnic University, priority 2012, dated 2019).
# Entries after “also recorded” stand apart in the source; their conditions may differ.
# Tests used:
# Type in all cases: in vivo, mice
# [1] = test system: endometriotic lesions (experimental endometriosis); assay: Growth of luminescent endometriotic lesions monitored weekly by IVIS bioluminescence imaging; details: for lesion bioluminescence relative to baseline levels / lesion bioluminescence intensity compared with saline group: i.p. once per day, 4 weeks, EGCG, pro-EGCG 50 mg/kg; for lesion bioluminescence intensity compared with saline group: vitamin E 20 mg/kg
# Text: Based on our previous study, an immune-compromised mouse model of experimental endometriosis was created by subcutaneous transplantation of human or mouse tissues to assess the anti-angiogenic effects and mechanisms of green tea catechin (Xu H, et al. Hum Reprod 2009; 24:608-18; Xu H, et al. Fertil Steril 2011; 96:1021-8).
# (§1) In this study, endometrial tissues from eight-week-old female CMV-Luc mice (n=15) were acquired for transplantation into nonluminescent NOD-SCID mice (n=32). The mouse endometrium was obtained during the proliferating estrous stage, and biopsies 2 mm in diameter were obtained with a sterile dermal biopsy punch (Miltex, NY). The biopsies were immediately washed in prewarmed, phenol-red-free DMEM/F-12 medium (Sigma) to remove residual blood and mucus, and the samples were maintained in serum-free DMEM/F-12 medium before transplantation (Bruner-Tran K L, et al. J Clin Endocrinol Metab 2009; 94:2489-94). Cultured endometrial biopsies were randomly allocated for transplantation.
# (§2) Five mouse endometrial biopsies per treatment group were implanted into a single subcutaneous pocket created is the abdominal wall of the mice along the ventral midline immediately below the umbilicus. All of the surgical procedures were performed under general anesthesia with isoflurane (Baxter, IL), and the mice were monitored until they fully recovered.
# Development and angiogenesis of the experimental endometriosis were monitored using various in vivo imaging systems. During the intervention, growth of the endometriotic lesions (n=8 per group) was monitored each week by measuring the bioluminescence of the subcutaneous luciferase-positive implants using a non-invasive IVIS 200 live animal imaging system (Xenogen) as previously described (Song C, et al. Hum Gene Ther, 2011; 22:439-49). A total of 150 mg/kg of luciferin was injected intraperitoneally […] 10 mins prior to imaging. An image from each animal was captured at bin size 4 in triplicate, and the bioluminescence signal intensities were averaged for comparison.
# [2] = test system: endometriotic lesions (experimental endometriosis); assay: Lesion size, weight and histology at end of intervention; details: for lesion size compared to control group / lesion weight compared to control group / development and histology of the endometriotic lesions: after 4 weeks i.p. once per day; for lesion size compared to control group / lesion weight compared to control group: EGCG, pro-EGCG 50 mg/kg, vitamin E 20 mg/kg; for development and histology of the endometriotic lesions: microscopic examination
# Text: as §1, §2
# At the end of intervention, size of the endometriotic lesions was determined as the longest length and perpendicular width according to a venire caliper and was calculated as 0.52×width^2×length in mm^3. The endometrial implants, together with subcutaneous and muscle layers, were removed from the abdomen wall for detailed histological examination and specific staining analysis.
# Paraffin sections (n=4 per group) were prepared for standard hematoxylin and eosin (H&E) staining, angiogenesis immunostaining and TUNEL staining as previously described (Xu H, et al. Hum Reprod 2009; 24:608-18.). Immunohistochemistry staining of in situ angiogenesis was performed by the immunoperoxidase method using a MACH 3 HRP Polymer Kit (Biocare Medical, Concord), and counterstained using methyl green or blue solution.
# [3] = test system: ovarian follicles, endometrial glands, ovarian and endometrial stroma microvessels; assay: Reproductive effects on eutopic endometrium and ovaries (H&E, CD34 immunostaining); details: H&E staining after 4-week intervention
# Protocol: Reproductive effects of EGCG and pro-EGCG on the endometrium and ovaries of each animal were also examined. After the 4-week intervention, the uterine horns and ovaries (n=8 per group) were removed and fixed for histological examination and angiogenesis immunostaining as described above. Endometrial glands, ovarian follicles and vascularization in endometrial and ovarian stroma were assessed.
# [4] = test system: apoptotic cells in the endometriotic lesions; assay: Apoptosis in endometriotic lesions by Cellvizio YO-PRO-1 imaging and TUNEL staining; details: after 4 weeks
# Protocol: At the end of intervention, functional angiogenesis of the endometriotic lesions (n=8 per group) was monitored by measuring the flow of fluorescence dye in the new microvessels developed in the implants using a Cellvizio® LAB LSU-488 system with a ProFlex Microprobe S1500 (Mauna Kea Technologies, Paris) as previously described (Xu H, et al. Fertil Steril 2011; 96:1021-8.). A total of 10 mg/ml of FITC-Dextran was injected intravenously into each mouse prior to imaging. Total vessel length (μm) and area (μm^2) and functional capillary length (μm^−1) and area density were measured using Cellvizio® LAB Vessel Detection software, and averaged from 4 perpendicular regions of the lesions in replicates. At the same time, apoptotic cells in the lesions were captured by Cellvizio-LAB 488 with a ProFlex MiniO/100 microprobe using Cellvizio® LAB I/C Viewer software (Mauna Kea Technologies). A total of 10 μl of 10 μM YO-PRO®-1 iodide in DSMO was injected into the lesion area.
# The total number of apoptotic cells was counted and averaged from the 4 perpendicular regions of the lesions in replicates as described above. Both IVIS and Cellvizio imaging procedures were performed under general anesthesia with isoflurane (Baxter, Ill.), and the mice were observed until fully recovered.
# TUNEL labeling for in situ apoptotic cells was performed using an ApopTag Peroxidase In Situ Apoptosis Detection Kit (Temecula, Calif.) according to the manufacturer's instructions. The total numbers of TUNEL-positive stained cells were counted. The mean numbers of apoptotic cells were calculated from 5 separated sections from each animal within the treatment group and are presented as numbers per lesion as above. […] Each section was evaluated by both examiners, who were blinded to the experimental groups and results.
# [5] = Oxygen radical absorbance capacity (ORAC) in plasma and lesions; details: for ORAC in endometriotic lesions compared between treatment groups / ORAC in endometriotic lesions compared to saline group: lesions after intervention; for ORAC in plasma compared between treatment groups / ORAC in plasma compared to saline group: plasma during intervention
# Text: Pharmacokinetics of EGCG and pro-EGCG in the animals were studied by measuring the corresponding EGCG and pro-EGCG concentrations (EGCG in the EGCG group, pro-EGCG in the pro-EGCG group) in plasma during the intervention and also in lesions at the end of intervention. EGCG and pro-EGCG were quantified by analytical methods as previously described (Lam W H, et al. Bioorg Med Chem. 2004; 510:69-93; Chu K O, et al. J Chromat B 2004; 810:187-95; Chu K O, et al. Anal Chim Acta 2004; 510:69-76). Anti-oxidative and anti-angiogenesis capacities of the samples were also studied by measuring oxygen radical absorbance capacity (ORAC) using a modified phycoerythrin fluorescence decay assay as previously described (Wang C C, et al. Clin Chem 2004; 50:952-4), and vascular endothelial growth factor (VEGF) concentrations were measured using a commercial ELISA kit (Uscn Life Science Inc., TX) according to the manufacturer's manual. Blood samples (n=8 per group) were collected from the tail vein once per week, and plasma was prepared by immediate centrifugation. Implants without subcutaneous and muscle layers (n=4 per group) were removed from the abdominal wall, and the endometriotic lesions were frozen. All of the samples were kept in −80° C. prior to analysis.
# [6] = after 4 weeks, 50 mg/kg i.p. once per day
Structure (SMILES),lesion bioluminescence relative to baseline levels [1],lesion bioluminescence intensity compared with saline group [1],lesion size compared to control group [2],lesion weight compared to control group [2],development and histology of the endometriotic lesions [2],effects on ovarian follicles [3],effects on uterine endometrial glands [3],total apoptotic cell numbers in the lesions compared to saline group [4],ORAC in endometriotic lesions compared between treatment groups [5],ORAC in endometriotic lesions compared to saline group [5],ORAC in plasma compared between treatment groups [5],ORAC in plasma compared to saline group [5],"lesion bioluminescence intensity compared with EGCG group ([1]; 50 mg/kg i.p. once per day, 2nd, 3rd and 4th weeks)","lesion size compared with EGCG-treated mice [2, 6]","lesion weight compared with EGCG-treated mice [2, 6]",apoptotic cell numbers in the lesions compared with EGCG group [4]
"O=C(O[C@@H]1Cc2c(O)cc(O)cc2O[C@@H]1c1cc(O)c(O)c(O)c1)c1cc(O)c(O)c(O)c1 [EGCG, (−)-epigallocatechin-3-gallate]",maintained around the baseline levels,"significantly lower than that of the saline group at the 2nd, 3rd and 4th weeks",significantly decreased,significantly decreased,poorly developed; also recorded: small and loosely attached to the adjacent tissues,not affected,not affected,significantly increased,not significantly different from the vitamin E group,significantly increased,not significantly different from the vitamin E group,significantly increased,–,–,–,–
"CC(=O)Oc1cc(OC(C)=O)c2c(c1)O[C@H](c1cc(OC(C)=O)c(OC(C)=O)c(OC(C)=O)c1)[C@H](OC(=O)c1cc(OC(C)=O)c(OC(C)=O)c(OC(C)=O)c1)C2 [pro-EGCG, (−)-EGCG octaacetate]",decreased further below the baseline levels,"significantly lower than that of both the saline group and the EGCG group at the 2nd, 3rd and 4th weeks",significantly decreased,significantly decreased,poorly developed; also recorded: degraded and almost detached from the peritoneal muscle layers,not affected,not affected,significantly increased,significantly higher than in the EGCG and vitamin E groups,significantly increased,significantly higher than in the EGCG and vitamin E groups,significantly increased,"significantly lower than that of both the saline group and the EGCG group at the 2nd, 3rd and 4th weeks",significantly smaller,lighter,significantly higher than the number in the EGCG group
